According to ChEMBL document CHEMBL1130366, “Search for surrogates: A study of endothelin receptor antagonist structure activity relationships” (Bioorg Med Chem Lett, 1997):

Legend:
[1] = target: T1, Endothelin receptor type B (Homo sapiens, UniProt P24530); assay: Inhibition of I-ET-1 binding to human Endothelin B receptor
T1 sequence (P24530 whole entry): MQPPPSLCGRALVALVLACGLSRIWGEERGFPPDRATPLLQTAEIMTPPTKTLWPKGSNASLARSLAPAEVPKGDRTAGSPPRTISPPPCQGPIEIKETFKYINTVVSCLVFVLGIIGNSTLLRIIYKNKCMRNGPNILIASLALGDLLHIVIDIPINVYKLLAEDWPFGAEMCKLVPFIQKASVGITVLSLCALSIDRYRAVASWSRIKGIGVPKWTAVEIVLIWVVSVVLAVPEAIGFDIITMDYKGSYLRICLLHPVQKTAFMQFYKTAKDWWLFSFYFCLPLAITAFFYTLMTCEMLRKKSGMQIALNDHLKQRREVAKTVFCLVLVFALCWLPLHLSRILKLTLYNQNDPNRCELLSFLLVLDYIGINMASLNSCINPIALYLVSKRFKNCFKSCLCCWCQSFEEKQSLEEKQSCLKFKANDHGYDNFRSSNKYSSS

Endothelin-1 receptor = target: T2, Endothelin-1 receptor (Homo sapiens, UniProt P25101); assay: Inhibition of I-ET-1 binding to human Endothelin A receptor
T2 sequence (P25101 whole entry): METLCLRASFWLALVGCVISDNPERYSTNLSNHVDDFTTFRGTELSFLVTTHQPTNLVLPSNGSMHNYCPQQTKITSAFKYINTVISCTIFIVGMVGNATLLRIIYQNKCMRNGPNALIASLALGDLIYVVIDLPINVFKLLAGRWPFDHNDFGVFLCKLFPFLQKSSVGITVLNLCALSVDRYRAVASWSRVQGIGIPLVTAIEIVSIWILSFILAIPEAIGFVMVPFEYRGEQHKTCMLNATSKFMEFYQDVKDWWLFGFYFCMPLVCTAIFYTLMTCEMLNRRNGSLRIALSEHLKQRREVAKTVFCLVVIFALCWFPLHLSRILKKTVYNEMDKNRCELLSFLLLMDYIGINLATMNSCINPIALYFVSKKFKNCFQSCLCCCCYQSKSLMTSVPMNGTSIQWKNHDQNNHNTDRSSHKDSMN

Row | Structure (SMILES) | IC50 [1] [µM] | IC50 (Endothelin-1 receptor) [µM]
1 | Cc1ccc(OCc2sccc2S(=O)(=O)Nc2onc(C)c2Br)cc1 | 15.6 | –
2 | CCCc1cc2c(cc1OCc1ccsc1S(=O)(=O)Nc1onc(C)c1Br)OCO2 | 1.3 | 0.134
3 | Cc1noc(NS(=O)(=O)c2ccsc2COc2cc3c(cc2Cl)OCO3)c1Br | 0.765 | 0.129
4 | Cc1noc(NS(=O)(=O)c2ccsc2COc2ccc3c(c2)OCO3)c1Br | 5.93 | 0.299
5 | Cc1cc(C)c(OCc2ccsc2S(=O)(=O)Nc2onc(C)c2Br)c(C)c1 | 4.28 | 0.054

Now from value to molecule:

Row | IC50 [1] [µM] | IC50 (Endothelin-1 receptor) [µM] | Structure (SMILES)
6 | 0.335 | 0.104 | CCCc1cc2c(cc1OCc1sccc1S(=O)(=O)Nc1onc(C)c1Br)OCO2
7 | 9.55 | 0.513 | Cc1noc(NS(=O)(=O)c2sccc2COc2ccc3c(c2)OCO3)c1Br
8 | 7.27 | – | Cc1ccc(OCc2ccsc2S(=O)(=O)Nc2onc(C)c2Br)c(C)c1
9 | 3.07 | 0.062 | Cc1cc(C)c(OCc2sccc2S(=O)(=O)Nc2onc(C)c2Br)c(C)c1
